# From patent US11261186B2, “Biaryl derivative as GPR120 agonist” (LG CHEM, LTD., priority 2014, dated 2022)
# Molecular target: T1, hGPR120 (Homo sapiens, UniProt Q5NUL3)
# T1 construct: expressed in transfected cells; host or cells: CHO-K1
# T1 sequence (Q5NUL3 1-361): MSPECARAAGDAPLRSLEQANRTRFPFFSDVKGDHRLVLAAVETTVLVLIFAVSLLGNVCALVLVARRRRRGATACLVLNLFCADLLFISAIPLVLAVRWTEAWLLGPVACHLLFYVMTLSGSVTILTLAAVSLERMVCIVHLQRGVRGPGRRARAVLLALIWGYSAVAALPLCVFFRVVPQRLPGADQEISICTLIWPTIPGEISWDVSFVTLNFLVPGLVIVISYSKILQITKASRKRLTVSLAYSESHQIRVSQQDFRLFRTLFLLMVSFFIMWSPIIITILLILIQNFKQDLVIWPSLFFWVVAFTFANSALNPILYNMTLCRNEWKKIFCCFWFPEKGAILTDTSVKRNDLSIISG
# Test: Measurement of Activity of GPR120 Agonist (Cell-Based Assay), Calcium 5 dye fluorescence
# Conditions: CHO-K1 cells expressing Ga16 and hGPR120
# Experimental: CHO-K1 cells expressing Ga16 and hGPR120 were dispensed into each well of a 96-well plate (3×10^4 cells/100 μl/well) and then incubated in 5% CO2, 37° C. incubator for 18 hours. Each well was treated with 100 μl of Calcium 5 dye (Molecular Devices) solution including 2% DMSO and then incubated in 5% CO2, 37° C. incubator for 1 hour. Serially diluted GPR120 agonists were prepared to a final concentration of 0.5% DMSO in a 96-well plate. Each well was treated with 50 μl of the agonist compounds using Plexstation II, and then fluorescence was measured at Ex 485 nm and Em 525 nm.
# Fluorescence increased by the serially diluted GPR120 agonists is calculated as a relative percent (%) value based on the fluorescence represented by the treatment of 1% DMSO only. […] The calculation of measurement was carried out by using statistical software (Prizm).
# Activity is denoted based on the following criteria: […]
row,EC50 [nM],SMILES
1,200 to 2000,"CC(C)Sc1cccc(-c2cc(F)c(NCCCCC(=O)O)c(F)c2)n1 [Example 96, 5-[2,6-difluoro-4-(6-isopropylsulfanyl-2-pyridyl)anilino]pentanoic acid]"
2,< 200,"CC(C)Sc1ncccc1-c1cc(F)c(NCCCCC(=O)O)c(F)c1 [Example 97, 5-[2,6-difluoro-4-(2-isopropylsulfanyl-3-pyridyl)anilino]pentanoic acid]"
3,< 200,"O=C(O)CCCCNc1c(F)cc(-c2cccc(OCC3CC3)n2)cc1F [Example 98, 5-[4-[6-(cyclopropylmethoxy)-2-pyridyl]-2,6-difluoro-anilino]pentanoic acid]"
4,< 200,"O=C(O)CCCCNc1c(F)cc(-c2cccnc2OCC2CC2)cc1F [Example 99, 5-[4-[2-(cyclopropylmethoxy)-3-pyridyl]-2,6-difluoro-anilino]pentanoic acid]"
5,< 200,"O=C(O)CC1CCN(c2c(F)cc(-c3cccnc3SC3CCCC3)cc2F)CC1 [Example 100, 2-[1-[4-(2-cyclopentylsulfanyl-3-pyridyl)-2,6-difluoro-phenyl]-4-piperidyl]acetic acid]"
6,< 200,"CN(CCCCC(=O)O)c1c(F)cc(-c2cccc(OCC3CC3)n2)cc1F [Example 101, 5-[4-[6-(cyclopropylmethoxy)-2-pyridyl]-2,6-difluoro-N-methyl-anilino]pentanoic acid]"
7,200 to 2000,"O=C(O)CC1CCN(c2c(F)cc(-c3cccnc3OC3CCOC3)cc2F)CC1 (stereo not shown) [Example 103, 2-[1-[2,6-difluoro-4-(2-tetrahydrofuran-3-yloxy-3-pyridyl)phenyl]-4-piperidyl]acetic acid]"
8,< 200,"CC(C)Sc1ncccc1-c1cc(F)c(N2CCC(CC(=O)O)CC2)c(F)c1 [Example 104, 2-[1-[2,6-difluoro-4-(2-isopropylsulfanyl-3-pyridyl)phenyl]-4-piperidyl]acetic acid]"
9,< 200,"CC(C)Sc1cccc(-c2cc(F)c(N3CCC(CC(=O)O)CC3)c(F)c2)n1 [Example 105, 2-[1-[2,6-difluoro-4-(6-isopropylsulfanyl-2-pyridyl)phenyl]-4-piperidyl]acetic acid]"
10,< 200,"O=C(O)CC1CCN(c2c(F)cc(-c3cccc(OCC4CC4)n3)cc2F)CC1 [Example 106, 2-[1-[4-[6-(cyclopropylmethoxy)-2-pyridyl]-2,6-difluoro-phenyl]-4-piperidyl]acetic acid]"
11,2000 to 20000,"CC(C)Sc1ncccc1-c1cc(F)c(N2CCCC(CC(=O)O)C2)c(F)c1 (stereo not shown) [Example 108, 2-[1-[2,6-difluoro-4-(2-isopropylsulfanyl-3-pyridyl)phenyl]-3-piperidyl]acetic acid]"
12,< 200,"CC(C)Sc1ncccc1-c1cc(F)c(N2CC(CC(=O)O)C2)c(F)c1 [Example 109, 2-[1-[2,6-difluoro-4-(2-isopropylsulfanyl-3-pyridyl)phenyl]azetidin-3-yl]acetic acid]"
13,200 to 2000,"CC(C)Sc1ncccc1-c1cc(F)c(N2CCC3(CC2)CC3C(=O)O)c(F)c1 (stereo not shown) [Example 110, 6-[2,6-difluoro-4-(2-isopropylsulfanyl-3-pyridyl)phenyl]-6-azaspiro[2.5]octan-2-carboxylic acid]"
14,2000 to 20000,"CC(C)Sc1cccc(-c2cc(F)c(N3CCC4(CC3)CC4C(=O)O)c(F)c2)n1 (stereo not shown) [Example 111, 6-[2,6-difluoro-4-(6-isopropylsulfanyl-2-pyridyl)phenyl]-6-azaspiro[2.5]octan-2-carboxylic acid]"

row,SMILES,EC50 [nM]
1,"CCN(CCCCC(=O)O)c1c(F)cc(-c2cccnc2OC2CCCC2)cc1F [Example 95, 5-[4-[2-(cyclopentoxy)-3-pyridyl]-N-ethyl-2,6-difluoro-anilino]pentanoic acid]",200 to 2000
2,"O=C(O)CC1CCN(c2c(F)cc(-c3cccnc3OC3CCCC3)cc2F)CC1 [Example 102, 2-[1-[4-[2-(cyclopentoxy)-3-pyridyl]-2,6-difluoro-phenyl]-4-piperidyl]acetic acid]",< 200
